Assay results as given in patent US11052092B2, “N-{[2-(piperidin-1-yl)phenyl](phenyl)methyl}-2-(3-oxo-3,4-dihydro-2H-1,4-benzoxazin-7-yl)acetamide derivatives and related compounds as ROR-gamma modulators for treating autoimmune diseases” (Genfit, priority 2017, dated 2021).

Legend:
[1] = biological target: T1, human RORγt (Homo sapiens, UniProt P51449); assay: RORE Luciferase/RORγt transactivation assay; type: cell-based; settings: COS-7 cells transfected with human IL-17 promoter luciferase reporter and RORγt plasmid; 20 h with compound; read-out: IC50, RORγt activity inhibition
T1 construct: the full-length cDNA of human RORγt; expressed in transfected cells; host or cells: COS-7 (monkey kidney)
T1 sequence (P51449 1-497 isoform P51449-2): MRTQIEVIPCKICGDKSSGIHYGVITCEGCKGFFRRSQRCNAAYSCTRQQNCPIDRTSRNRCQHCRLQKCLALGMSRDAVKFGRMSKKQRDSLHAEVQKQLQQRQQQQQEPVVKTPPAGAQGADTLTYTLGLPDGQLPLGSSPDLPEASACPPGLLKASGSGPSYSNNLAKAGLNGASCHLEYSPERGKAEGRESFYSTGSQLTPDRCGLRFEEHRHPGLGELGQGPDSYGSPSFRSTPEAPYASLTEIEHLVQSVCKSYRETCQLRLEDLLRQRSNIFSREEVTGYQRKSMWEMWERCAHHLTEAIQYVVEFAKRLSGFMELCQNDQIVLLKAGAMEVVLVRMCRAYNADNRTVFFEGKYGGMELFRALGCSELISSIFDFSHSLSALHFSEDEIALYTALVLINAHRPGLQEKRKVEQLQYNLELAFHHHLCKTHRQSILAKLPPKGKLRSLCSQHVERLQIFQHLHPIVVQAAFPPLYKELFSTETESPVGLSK
Method in brief: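 COS-7 cells were transiently co-transfected with a human IL-17 promoter (RORE/CNS)–luciferase reporter and a RORγt expression plasmid, then seeded at 10000 cells/well in serum-free, phenol red-free DMEM. Compounds were added at 0.3% DMSO final. Luciferase was read with Steady-Glo, and IC50 and Emax were derived.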

[2] = test system: Murine EL-4 lymphoma cell line overexpressing human RORγt; assay: IL-17 secretion from EL4 murine lymphoma; type: cell-based; settings: Mus musculus; human RORγt-transfected EL4 cells, PMA (10 ng/mL) and ionomycin (1 μM), 24 h; read-out: IC50, IL-17 secretion inhibition
Method in brief: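 EL-4 cells electroporated with hRORγt plasmid, seeded at 150000 cells/well and pretreated with compound for 24 h, then stimulated with PMA (10 ng/mL) plus ionomycin (1 μM final) with compound for a further 24 h at 37 °C. IL-17 in supernatant measured by HTRF or ELISA.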

[3] = biological target: T2, RORγt ligand-binding domain (RORγt-LBD) (Homo sapiens, UniProt P51449); assay: Time-resolved FRET (TR-FRET) RORγt coactivator assay; settings: GST-RORγ-LBD, biotinylated RIP140 peptide, 2 hours at room temperature
T2 construct: 20 nM recombinantly expressed RORγ-LBD fused to GST
T2 sequence (P51449 269-508 limits assumed): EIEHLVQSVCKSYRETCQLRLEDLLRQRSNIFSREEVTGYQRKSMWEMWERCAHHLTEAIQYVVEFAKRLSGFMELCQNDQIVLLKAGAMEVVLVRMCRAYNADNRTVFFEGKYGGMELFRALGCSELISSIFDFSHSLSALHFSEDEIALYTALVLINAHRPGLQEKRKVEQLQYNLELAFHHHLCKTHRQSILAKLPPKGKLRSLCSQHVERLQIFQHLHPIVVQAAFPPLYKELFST
Method in brief: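 GST-tagged RORγt-LBD (20 nM) with 30 nM biotinylated RIP140-derived peptide, streptavidin-terbium and d2 anti-GST in CHAPS buffer (1 mM DTT, 2 mM EDTA, 0.1% BSA), 1% DMSO. Compounds at 0.3 nM–30 μM final, equilibrated 2 h, room temperature, dark. Coactivator displacement lowers the TR-FRET signal; IC50 (μM) and Emax (%) reported.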

[4] = test system: multiple sclerosis model; settings: administered by injection; cited from earlier work
[5] = test system: psoriasis model; settings: administered by injection; cited from earlier work
[6] = test system: patients with moderate to severe psoriasis; settings: cited from earlier work

SMILES	IC50 [1] [nM]	IC50 [2] [nM]	IC50 [3] [nM]	further results
Cc1ccc(C(NC(=O)Cc2ccc3[nH]cc(CCS(C)(=O)=O)c3c2)c2ccc(C)o2)c(N2CCCCC2)c1 (stereo not shown) [Cpd. 98, 2-[3-(2-methanesulfonylethyl)-1H-indol-5-yl]-N-{[4-methyl-2-(piperidin-1-yl)phenyl](5-methylfuran-2-yl)methyl}acetamide]	10 to 100	< 100	10 to 100	–
Cc1ccc(C(NC(=O)Cc2ccc3c(ccn3C(=O)C3CCOCC3)c2)c2ccc(C)o2)c(N2CCCCC2)c1 (stereo not shown) [Cpd. 118, N-{[4-methyl-2-(piperidin-1-yl)phenyl](5-methylfuran-2-yl)methyl}-2-[1-(oxane-4-carbonyl)-1H-indol-5-yl]acetamide]	10 to 100	< 100	100 to 1000	melting point: 96 °C
Cc1ccc(C(NC(=O)C2(c3ccc4c(c3)OCS(=O)(=O)N4)CC2)c2ccc(C)o2)c(C)c1 (stereo not shown) [Cpd. 124, N-[(2,4-dimethylphenyl)(5-methylfuran-2-yl)methyl]-1-(2,2-dioxo-1,3-dihydro-4,2,1-benzoxathiazin-6-yl)cyclopropane-1-carboxamide]	10 to 100	100 to 1000	< 10	–
Cc1ccc(C(NC(=O)C2(c3ccc4c(c3)C(=O)C(=O)N4)CC2)c2ccc(C)o2)c(C)c1 (stereo not shown) [Cpd. 125, N-[(2,4-dimethylphenyl)(5-methylfuran-2-yl)methyl]-1-(2,3-dioxo-2,3-dihydro-1H-indol-5-yl)cyclopropane-1-carboxamide]	10 to 100	< 100	< 10	–
CC(=O)N1Cc2ccc(C3(C(=O)NC(c4ccc(C)o4)c4ccc(C)cc4C)CC3)cc2C1 (stereo not shown) [Cpd. 127, 1-(2-acetyl-2,3-dihydro-1H-isoindol-5-yl)-N-[(2,4-dimethylphenyl)(5-methylfuran-2-yl)methyl]cyclopropane-1-carboxamide]	10 to 100	< 100	< 10	–
Cc1ccc(C(NC(=O)C2(c3ccc4c(c3)CC(=O)N4C)CC2)c2ccc(C)o2)c(C)c1 (stereo not shown) [Cpd. 130, N-[(2,4-dimethylphenyl)(5-methylfuran-2-yl)methyl]-1-(1-methyl-2-oxo-2,3-dihydro-1H-indol-5-yl)cyclopropane-1-carboxamide]	10 to 100	< 100	< 10	–
CC(=O)Nc1nc(C)c(S(=O)(=O)Nc2ccc(C(O)(C(F)(F)F)C(F)(F)F)cc2)s1 [SR1001]	–	–	–	efficacy in multiple sclerosis model [4]: efficacious
Cc1ccc([C@@H](NC(=O)Cc2ccc3oc([C@@H](O)c4c(C)noc4C)cc3c2)c2ccccc2)c(C)c1 [TMP778]	–	–	–	efficacy in psoriasis model [5]: efficacious
CCS(=O)(=O)c1ccc(CNC(=O)c2cnc3c(c2)CN(C[C@H]2CC[C@H](C(F)(F)F)CC2)[C@H]3C(C)C)nc1 [VTP-43742]	–	–	–	reduction in the Psoriasis Area Severity Index (PASI) score relative to placebo ([6]; 350 mg dose group): 24%; placebo-adjusted PASI score reduction ([6]; 700 mg dose group): 30%; plasma IL-17 levels ([6]; relative to placebo): reduced

The next lines start with results.

IC50 [1] [nM]	IC50 [2] [nM]	IC50 [3] [nM]	SMILES	further results
10 to 100	100 to 1000	10 to 100	Cc1ccc(C(NC(=O)Cc2ccc3[nH]c(C)nc3c2)c2ccccc2)c(Br)c1 (stereo not shown) [Cpd. 81, N-[(2-bromo-4-methylphenyl)(phenyl)methyl]-2-(2-methyl-1H-1,3-benzodiazol-5-yl)acetamide]	melting point: 138 °C
10 to 100	100 to 1000	10 to 100	Cc1ccc(C(NC(=O)Cc2ccc3[nH]c(C)nc3c2)c2ccccc2)c(N2CCCC2)c1 (stereo not shown) [Cpd. 82, 2-(2-methyl-1H-1,3-benzodiazol-5-yl)-N-{[4-methyl-2-(pyrrolidin-1-yl)phenyl](phenyl)methyl}acetamide]	–
< 10	< 100	< 10	Cc1ccc(C(NC(=O)C2(c3ccc4c(c3)CC(=O)N4)CC2)c2ccc(Cl)o2)c(C)c1 (stereo not shown) [Cpd. 86, N-[(5-chlorofuran-2-yl)(2,4-dimethylphenyl)methyl]-1-(2-oxo-2,3-dihydro-1H-indol-5-yl)cyclopropane-1-carboxamide]	–
10 to 100	< 100	< 10	Cc1ccc(C(NC(=O)C2(c3ccc4c(c3)CS(=O)(=O)N4)CC2)c2ccc(Cl)o2)c(C)c1 (stereo not shown) [Cpd. 87, N-[(5-chlorofuran-2-yl)(2,4-dimethylphenyl)methyl]-1-(2,2-dioxo-1,3-dihydro-2,1-benzothiazol-5-yl)cyclopropane-1-carboxamide]	–
10 to 100	100 to 1000	10 to 100	CCOc1nc2cc(CC(=O)NC(c3ccccc3)c3ccc(C)cc3Br)ccc2[nH]1 (stereo not shown) [Cpd. 90, N-[(2-bromo-4-methylphenyl)(phenyl)methyl]-2-(2-ethoxy-1H-1,3-benzodiazol-5-yl)acetamide]	–
10 to 100	100 to 1000	100 to 1000	CSc1ccc2cc(CC(=O)NC(c3ccc(C)o3)c3ccc(C)cc3N3CCCCC3)ccc2c1 (stereo not shown) [Cpd. 91, N-{[4-methyl-2-(piperidin-1-yl)phenyl](5-methylfuran-2-yl)methyl}-2-[6-(methylsulfanyl)naphthalen-2-yl]acetamide]	–
10 to 100	100 to 1000	100 to 1000	CCSc1nc2cc(CC(=O)NC(c3ccccc3)c3ccc(C)cc3Br)ccc2[nH]1 (stereo not shown) [Cpd. 92, N-[(2-bromo-4-methylphenyl)(phenyl)methyl]-2-[2-(ethylsulfanyl)-1H-1,3-benzodiazol-5-yl]acetamide]	–
